Measurements reported in patent US11738007B2, “Treatment of glaucoma using endothelin receptor antagonists” (Perfuse Therapeutics, Inc., priority 2019, dated 2023).
“And” between values parts separate entries of the source, which are not always exact repeats. Equal values may be shown once. Read-outs that look alike come from different tables or passages of the source.

Legend:
Solubility = format: physicochemical
Source text: (§1) In the above table, the physicochemical data, e.g., solubility, were obtained following standard protocols known in the field (see, e.g., Reis et al., Mini Rev Med Chem., 2010, 10(11):1071-6; Avdeef et al., Expert Opin Drug Metab Toxicol., 2005, 1(2):325-42; Bharate et al., Comb Chem High Throughput Screen., 2016, 19(6):461-9; and Jain et al., J Pharm Biomed Anal., 2013, 86:11-35); and the biochemical data, i.e., potency for ETA/ETB, were obtained following the protocols known in the field (see, e.g., Kirkby et al., Br J Pharmacol., 2008, 153(6):1105-19; and Maguire et al., Br J Pharmacol., 2014, 171(24):5555-72).

ETB receptor = target: T1, ETB receptor (Homo sapiens, UniProt P24530); experiment: Functional potency for ETB receptor; format: biochemical
T1 sequence (P24530 27-442): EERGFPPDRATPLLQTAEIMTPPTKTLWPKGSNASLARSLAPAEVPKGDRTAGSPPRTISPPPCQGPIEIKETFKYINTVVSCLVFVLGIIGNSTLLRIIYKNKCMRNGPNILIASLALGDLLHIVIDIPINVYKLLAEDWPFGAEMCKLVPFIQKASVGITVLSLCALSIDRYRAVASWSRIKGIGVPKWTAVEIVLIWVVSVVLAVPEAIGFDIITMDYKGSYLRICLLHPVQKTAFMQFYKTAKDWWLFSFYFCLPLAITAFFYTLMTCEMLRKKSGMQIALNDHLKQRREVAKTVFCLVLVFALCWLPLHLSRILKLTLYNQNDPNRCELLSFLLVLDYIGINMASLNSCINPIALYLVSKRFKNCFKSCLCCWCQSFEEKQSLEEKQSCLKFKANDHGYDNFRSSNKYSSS
Source text: as §1

ETA/ETB receptor = experiment: ETA/ETB selectivity (specificity); format: biochemical; settings: ETA versus ETB, rating in words
Source text: as §1

Stability in solid state = format: physicochemical; settings: 2 h @ l25° C.
Source text: as §1

[1] = Pharmacokinetics after topical or oral administration in the rat; format: in vivo, Brown Norway rats
Protocol: After the administrations, the animals (N=2) were euthanized at different time points (e.g. 4 and 8 hours) and tissues were collected for analysis. List of tissues collected include plasma, retina/retinal pigment epithelium (RPE)/choroid, vitreous humor and aqueous humor.

[2] = system: elevated intraocular pressure (IOP); experiment: Morrison's rat model of glaucoma (elevated IOP); format: in vivo, Brown Norway rats; settings: topical eye drops 100 μg per dose, five days a week, four weeks
Source text: Adult male and female retired breeder Brown Norway rats (approximate age groups of 8 to 11 months) were obtained from Envigo (Indianapolis, Ind.). Baseline IOP measurements and pattern electroretinogram (PERG) amplitudes were collected prior to the surgery for elevation of IOP (to ensure that the IOP and PERG amplitudes were in the expected range of values). IOP was elevated in one eye (left eye) of the rats, while the corresponding right eyes served as contralateral controls. The Morrison method to elevate IOP in rats was carried out by injection of 50 μL of hypertonic saline through the episcleral veins to sclerose the trabecular meshwork. IOP was measured twice a week throughout the entire duration of the experiment. […] After detecting an elevation of IOP for two consecutive days, topical administration of eye drops (20 μL (100 μg) per dose of the tested compounds in the IOP elevated eye) was commenced and carried out for five days a week for a total of four weeks. In the 4th week of treatment, PERG analysis was carried out and rats were sacrificed by an overdose of pentobarbital (Fatal-Plus). Aqueous humor was collected from the rat eyes, frozen and shipped for analysis. Retinal flat mounts were prepared, immunostained with the RGC marker, Brn3a antibody and surviving RGCs were counted in two eccentricities (central and peripheral). For this study, the Morrison's model was used to induce ocular hypertension in adult male retired breeder Brown Norway rats as previously described by Morrison et al., (Morrison J C, Moore […], Gold […], Johnson E C. A rat model of chronic pressure-induced optic nerve damage. Exp Eye Res. 1997; 64(1):85-96). The immunostained retinal flat mounts were obtained to measure the retinal ganglion cell (RGC) counts. To obtain immunostained retinal flat mounts, the animals were euthanized after the treatments and then their eyes were enucleated. The eye cups were fixed overnight at 4° C. in 4% paraformaldehyde (PFA) and retinal flat mounts were prepared for collecting images. The retinal ganglion cell (RGC) counting was conducted using the images of immunostained retinal flat mounts. The images were uploaded to ImageJ, a photo editor designed for biology research (Rasband, 1997-2018) and the labeled retinal ganglion cells were counted manually in two eccentricities (central and peripheral). […] Pattern ERG (PERG) was used to assess the RGC function. […] Briefly, PERG signals were acquired from a DTL-plus electrode placed on the lower part of the corneal surface and the PERG waves were analyzed using the EMWIN software (LKC). The difference between the amplitude of the major positive (P1) and negative (N2) waves were calculated to […] amplitude.

ETA receptor = target: T2, ETA receptor (Homo sapiens, UniProt P25101); experiment: Functional potency for ETA receptor; format: biochemical; settings: rating in words
T2 sequence (P25101 21-427): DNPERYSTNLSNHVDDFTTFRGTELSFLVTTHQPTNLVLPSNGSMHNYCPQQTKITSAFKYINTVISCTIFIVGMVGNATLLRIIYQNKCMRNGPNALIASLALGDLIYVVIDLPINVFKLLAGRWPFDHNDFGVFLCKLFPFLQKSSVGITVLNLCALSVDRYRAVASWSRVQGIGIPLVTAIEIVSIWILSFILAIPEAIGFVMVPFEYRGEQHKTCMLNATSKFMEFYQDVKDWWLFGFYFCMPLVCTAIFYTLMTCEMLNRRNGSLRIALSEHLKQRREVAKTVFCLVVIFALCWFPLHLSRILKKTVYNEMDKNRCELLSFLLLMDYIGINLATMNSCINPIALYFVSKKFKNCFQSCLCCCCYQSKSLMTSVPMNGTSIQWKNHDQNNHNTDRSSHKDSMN
Source text: as §1

LogD = format: physicochemical; settings: pH 7.4
Source text: as §1

Permeability (PAMPA) = format: in vitro ADME; settings: rating in words
Source text: as §1

In the case of `CCCCCS(=O)(=O)N(CCC)CCN1C[C@H](c2ccc3c(c2)OCO3)[C@@H](C(=O)O)[C@@H]1c1ccc(OC)c(F)c1` [A-182086, (2R,3R,4S)-4-(2H-1,3-benzodioxol-5-yl)-2-(3-fluoro-4-methoxyphenyl)-1-[2-(N-propylpentane-1-sulfonamido)ethyl]pyrrolidine-3-carboxylic acid], the solubility (Solubility; aqueous buffer, pH 7, amorphous form, read-out: Solubility at pH 7) is reported as 173 µg/mL and 298 µM, the solubility (Solubility; ethyl acetate, organic solvent or mixture, read-out: Solubility in Ethyl Acetate) is reported as > 10600 µg/mL and > 18400 µM and the “Solubility in Ethyl Acetate (rating)” value (Solubility; ethyl acetate, rating in words) is reported as “Good”. The solubility (Solubility; pH 2, simulated gastric fluid, read-out: Solubility at pH 2) was 92.5 µg/mL and 160 µM, the IC50 (ETB receptor) was 3.48 nM and the “Specificity (rating)” value (ETA/ETB receptor) was “Low specificity”. The “Stability in Solid State (rating)” value (Stability in solid state) was “unstable”, the “Stability in Solid State, remaining” value (Stability in solid state) was “about 87% remaining/” and the “Detection in retina/RPE/choroid” value ([1]; oral, 50 mg/kg) was “detectable”. The “Detection in retina/RPE/choroid, aqueous humor and vitreous humor” value ([1]; topical eye drop 100 μg, 4 and 8 hours post-administration) was “detected”, the “RGC function, pattern electroretinogram (PERG) changes” value [2] was “maintained RGC function” and the “Retinal ganglion cell (RGC) counts, peripheral retina” value [2] was “prevented RGC loss”. For the same molecule, the “Functional Potency for ETA and ETB Receptors (rating)” value (ETA receptor) was “High potency”, the logD (LogD) was 2.3 and the “Permeability (rating)” value (Permeability (PAMPA)) was “Mid-High”.
